Reference: article PMC8587043, “An Investigation into the Interaction between Double Hydroxide-Based Antioxidant Benzophenone Derivatives and Cyclooxygenase 2” (Molecules, 2021)

Tests used:
EA.hy926 cells = assay: Protective effect against H2O2-induced oxidative damage, MTT assay; assay type: cell-based, human; details: for EC50: Homo sapiens, EA.hy 926, 4 h, protection against H2O2-induced damage (400 µmol·L^−1, 4 h), n = 3, mean ± SD; for protection rate compared with positive controls (fenofibrate and quereetin): statistical comparison
Description: Hydrogen peroxide (H2O2), a small molecule and functions as oxidative stress and a second messenger which contributes to cell damage or death, could directly induce inflammation in several cell lines. H2O2-induced cell damage is a commonly used model for antioxidant activity evaluation. […] Thus, the concentration of 400 µmol·L^−1 at 4 h was chosen as the model.
Compound SC2 stock solutions were prepared in DMSO. The stock solutions were diluted with FBS free DMEM to different target concentrations (DMSO concentrations ≤ 0.5% v:v). Cells (100 μL, 2 × 10^5 cells∙mL^−1) were seeded on 96-well plates and cultured for 24 h. The medium was then replaced with fresh media containing H2O2 with different concentrations (0, 100, 200, 300, 400, 500, and 600 μmol·L^−1 in FBS free DMEM) and compound SC2 (50, 40, 30, 20, 10 µmol·L^−1), which were transferred to the incubator and cultured for additional time (2, 4, and 6 h). The medium was then replaced with 100 μL of FBS free DMEM and MTT (10 μL, 5 mg·mL^−1 in PBS) and after 4 h the medium was replaced with DMSO (100 μL). A microplate reader (SpectraMaxPlus384, Molecular Devices, United States) was used to record the absorbance at 490 nm for each well of the plates. Cell viability was measured via MTT assay. Survival rate (%) = (Asample group/Acontrol group) × 100%.
Cells (100 μL, 2 × 10^5 cells·mL^−1) were seeded in 96-well plates for 24 h. Cells were treated with different groups and cell viability was measured via MTT assay. The protection rates to oxidative damage were determined and EC50 values were calculated. The protection rates to cells were calculated using the following formula: Protection rate (%) = (Apretreatment group − Amodel group)/(Acontrol group − Amodel group) × 100%.

COX2 = molecular target: T1, COX2 (Homo sapiens, UniProt P35354); assay: Fluorescence quenching of COX2 (Stern-Volmer, double logarithm, thermodynamic parameters); assay type: binding; details: for Kq (bimolecular quenching constant): Kq = Ksv/τ0
T1 construct: purchased Sino Biological Co. (Beijing, China)
T1 sequence (P35354 18-604): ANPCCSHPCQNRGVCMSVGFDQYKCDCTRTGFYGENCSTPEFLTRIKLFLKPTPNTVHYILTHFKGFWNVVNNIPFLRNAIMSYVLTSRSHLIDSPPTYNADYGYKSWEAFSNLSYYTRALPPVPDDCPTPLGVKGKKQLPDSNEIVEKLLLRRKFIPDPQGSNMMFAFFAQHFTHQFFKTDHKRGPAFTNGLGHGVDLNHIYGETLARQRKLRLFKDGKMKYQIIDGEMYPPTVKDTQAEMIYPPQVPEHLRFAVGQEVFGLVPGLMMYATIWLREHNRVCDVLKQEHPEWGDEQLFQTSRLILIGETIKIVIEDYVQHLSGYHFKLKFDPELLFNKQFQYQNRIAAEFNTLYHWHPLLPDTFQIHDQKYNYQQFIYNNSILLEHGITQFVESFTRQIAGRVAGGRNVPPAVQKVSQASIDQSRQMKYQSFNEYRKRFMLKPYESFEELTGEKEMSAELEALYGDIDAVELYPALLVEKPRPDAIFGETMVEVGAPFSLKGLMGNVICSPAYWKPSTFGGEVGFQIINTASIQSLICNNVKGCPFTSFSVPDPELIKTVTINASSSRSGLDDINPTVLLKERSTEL
Description: The emitted fluorescence spectra of COX2 solution (6.0 × 10^−8 mol∙L^−1) without and with an increasing concentration of compounds DB2, SC2 or YB2 (7.5 × 10^−6 mol∙L^−1 to 4.5 × 10^−5 mol∙L^−1) at different temperatures are shown in Figure 4a,b, Figure 4c,d or Figure 4e,f, respectively. […] The quenching constant Kq and Stern–Volmer constant Ksv at different temperatures are usually used to identify the quenching mechanisms, static or dynamic. The former is caused by ground-state complex formation, the latter is diffusion. For the static quenching mechanism, the quenching constant decreases with temperature increase. In this part, we calculated the Kq and Ksv values by using a universally accepted Stern–Volmer equation [38]:(1) F0/F=1+Kqτ0[Q]=1+Ksv[Q] where F0 and F are the protein fluorescence intensities in the absence and the presence of quencher (compounds DB2, SC2 or YB2), respectively. Kq = Ksv/ τ0 . τ0 is the fluorescence lifetime of the fluorophore without the quencher ([…]). [Q] is the concentration of quencher. The Stern-Volmer plots of COX2 fluorescence quenching by compounds DB2, SC2 or YB2 are presented in Figure 5a, Figure 5b or Figure 5c, respectively. According to Table 1, the Ksv and Kq values for all three systems (COX2-DB2, COX2-SC2 and COX2-YB2) decreased with increasing temperature. Therefore, we considered that the quenching was static quenching. To further verify that the system was static quenching, dynamic quenching was assumed first.
For the static quenching, we can use the double logarithm equation to obtain the binding constant (KA) and the number of binding sites per protein (n):(2) lgF0−F/F=lgKA+nlg[Q]
There are four main kinds of non-covalent forces between drugs and proteins. These are electrostatic force, hydrogen bonding, hydrophobic force and van der Waals force. The kind of interaction between compounds DB2, SC2 or YB2 and COX2 can be obtained from thermodynamic parameters, including the free energy change (ΔG), enthalpy change (ΔH) and entropy change (ΔS) of the reaction. The three thermodynamic parameters can be obtained according to the published equations [42, 44]:(3) ΔG=−RTlnK (4) lnK2/K1=ΔH(1/T1−1/T2)×1/R (5) ΔG=ΔH−TΔS
The fluorescence intensity of the system was measured with a 1.0 cm quartz cell. COX2 protein was dissolved in PBS for a final concentration of 6.0 × 10^−8 mol∙L^−1. DB2, SC2 or YB2 stock solutions were prepared in singleton at 1.5 × 10^−3 mol∙L^−1 in PBS containing 0.1% DMSO. 2.0 mL COX2 solution was separately titrated by continuing additions of 10 μL compounds DB2, SC2 or YB2 solution). After incubation at 298 K or 310 K, fluorescence quenching spectra were recorded in the region 325-450 nm at a scan rate of 1200 nm∙min^−1. The local environment of Tyr and Trp residues was quite sensitive at 280 nm, so the excitation wavelength was set at this wavelength. Typically, 280 nm is also used to measure the changes in protein tertiary structure. The slit widths of emission and excitation were both fixed at 10 nm. To observe spectra behaviors of Tyr and Trp groups of COX2, the wavelength interval between the excitation and emission wavelengths (Δλ) was set as 15 nm and 60 nm, respectively. Three-dimensional fluorescence spectroscopy was obtained for an excitation range of 200–300 nm and an emission range of 325–400 nm. Appropriate buffer solutions, determined under the same operation conditions, were used as blanks. Each spectrum was recorded three times.

Row | Molecule | EC50 (EA.hy926 cells) [nM] | protection rate compared with positive controls (fenofibrate and quereetin) (EA.hy926 cells) | further results
1 | CCCCc1ccc(C(=O)c2cc(O)c(O)cc2Br)cc1 [DB1] | 7080 ± 92.6 | – | –
2 | CCCCc1ccc(C(=O)c2cc(O)c(O)cc2Cl)cc1 [DC1] | 3310 ± 242 | – | –
3 | CCCCc1ccc(C(=O)c2c(Cl)cc(O)c(O)c2O)cc1 [DC2] | 1550 ± 924 | no significant difference | –
4 | O=c1c(O)c(-c2ccc(O)c(O)c2)oc2cc(O)cc(O)c12 [Quereetin, quercetin, reference compound] | 7980 ± 1230 | – | –
5 | CC(C)(C)c1ccc(C(=O)c2cc(O)c(O)cc2Br)cc1 [SB1] | 12 ± 4.8 | no significant difference | –
6 | CC(C)(C)c1ccc(C(=O)c2c(Br)cc(O)c(O)c2O)cc1 [SB2] | 25.2 ± 12.2 | no significant difference | –
7 | CC(C)(C)c1ccc(C(=O)c2cc(O)c(O)cc2Cl)cc1 [SC1] | 1910 ± 521 | no significant difference | –
8 | CC(C)Cc1ccc(C(=O)c2cc(O)c(O)cc2Br)cc1 [YB1] | 8510 ± 957 | – | –
9 | CC(C)Cc1ccc(C(=O)c2cc(O)c(O)cc2Cl)cc1 [YC1] | 1910 ± 823 | – | –
10 | CC(C)Cc1ccc(C(=O)c2c(Cl)cc(O)c(O)c2O)cc1 [YC2] | 3850 ± 925 | no significant difference | –
11 | [3-isobutyl-4-methoxy-5 -(pyrrolidine-1-carbonyl)-phenyl]-butyric acid ethyl ester [Control compound, reference compound] | – | – | KA (binding constant) (COX2; 298 K): 4436.3 ± 718.24 L/mol; Ksv (Stern-Volmer quenching constant) (COX2; 298 K): 1.71 ± 0.297 ×10^4 L∙mol^−1; n (number of binding sites per protein) (COX2; 298 K): 0.947 ± 0.116; Kq (bimolecular quenching constant) (COX2; 298 K): 1.71 ± 0.297 ×10^12 L∙mol^−1∙S^−1; KA (binding constant) (COX2; 310 K): 1417.0 ± 92.261 L/mol; Ksv (Stern-Volmer quenching constant) (COX2; 310 K): 1.05 ± 0.157 ×10^4 L∙mol^−1; n (number of binding sites per protein) (COX2; 310 K): 0.785 ± 0.0195; Kq (bimolecular quenching constant) (COX2; 310 K): 1.05 ± 0.157 ×10^12 L∙mol^−1∙S^−1
